Reference: patent US7056940B2, “Insecticidal 3-(2,6-disubstituted phenyl)-5-[5-arylthien-2-yl]-1,2,4-triazoles” (Dow AgroSciences LLC, priority 2001, dated 2006)

Key:
Assay type in all cases: in vivo
[1] = test system: Two-spotted Spider Mite (Tetranychus urticae); experiment: Insecticidal test for two-spotted spider mite, ovicide method; set-up: key: A: 90–100; B: 80–89; C: 70–79; D: 60–69; E: 50–59; F: less than 50; G: Inactive; conditions: cotton leaf discs, 6 days
Procedure: Insecticidal Test for Two-spotted Spider Mite (Tetranychus urticae)
Ten adult female two-spotted spider mites were placed on eight 2.2 cm leaf discs of cotton leaf, allowed to oviposit over 24 hours, and thereafter removed. […] Discs were placed on an agar substrate and held at 24° C. and 90% RH for 6 days.

[2] = test system: Cabbage Looper (Trichoplusia ni); experiment: Insecticidal test for cabbage looper, treated cabbage leaf disc; set-up: key: A: 90–100; B: 80–89; C: 70–79; D: 60–69; E: 50–59; F: less than 50; G: Inactive; conditions: cabbage leaf-dip, 2nd instar larvae, 5 days
From the text: (§1) The compounds are useful for reducing populations of insects and mites and are useful in a method of inhibiting an insect or mite population which comprises applying to a locus of the insect or mite an effective insect- or mite-inactivating amount of a compound of formula (1). The “locus” of insects or mites is a term used herein to refer to the environment in which the insects or mites live or where their eggs are present, including the air surrounding them, the food they eat, or objects which they contact. For example, insects or mites which eat or contact edible or ornamental plants can be controlled by applying the active compound to plant parts such as the seed, seedling, or cutting which is planted, the leaves, stems, fruits, grain, or roots, or to the soil in which the roots are growing. It is contemplated that the compounds might also be useful to protect textiles, paper, stored grain, seeds, domesticated animals, buildings or human beings by applying an active compound to or near such objects. The term “inhibiting an insect or mite” refers to a decrease in the numbers of living insects or mites, or a decrease in the number of viable insect or mite eggs. The extent of reduction accomplished by a compound depends, of course, upon the application rate of the compound, the particular compound used, and the target insect or mite species. At least an inactivating amount should be used. The terms “insect-inactivating amount” and “mite-inactivating amount” are used to describe the amount, which is sufficient to cause a measurable reduction in the treated insect or mite population. Generally an amount in the range from about 1 to about 1000 ppm by weight active compound is used. For example, insects and mites which can be inhibited include, but are not limited to: • Lepidoptera—Heliothis spp., Helicoverpa spp., Spodoptera spp., Mythimna unipuncta, Agrotis ipsilon, Earias spp., Euxoa auxiliaris, Trichoplusia ni, Anticarsia gemmatalis, Rachiplusia nu, Plutella xylostella, Chilo spp., Scirpophaga incertulas, Sesamia inferens, Cnaphalocrocis medinalis, Ostrinia nubilalis, Cydia pomonella, Carposina niponensis, Adoxophyes orana, Archips argyrospilus, Pandemis heparana, Epinotia aporema, Eupoecilia ambiguella, Lobesia botrana, Polychrosis viteana, Pectinophora gossypiella, Pieris rapae, Phyllonorycter spp., Leucoptera malifoliella, Phyllocnisitis citrella • Coleoptera—Diabrotica spp., Leptinotarsa decemlineata, Oulema oryzae, Anthonomus grandis, Lissorhoptrus oryzophilus, Agriotes spp., Melanotus communis, Popillia japonica, Cyclocephala spp., Tribolium spp. • Homoptera—Aphis spp., Myzus persicae, Rhopalosiphum spp., Dysaphis plantaginea, Toxoptera spp., Macrosiphum euphorbiae, Aulacorthum solani, Sitobion avenae, Metopolophium dirhodum, Schizaphis graminum, Brachycolus noxius, Nephotettix spp., Nilaparvata lugens, Sogatella furcifera, Laodelphax striatellus, Bemisia tabaci, Trialeurodes vaporariorum, Aleurodes proletella, Aleurothrixus floccosus, Quadraspidiotus perniciosus, Unaspis yanonensis, Ceroplastes rubens, Aonidiella aurantii • Hemiptera—Lygus spp., Eurygaster maura, Nezara viridula, Piezodorus guildingi, Leptocorisa varicornis • Thysanoptera—Frankliniella occidentalis, Thrips spp., Scirtothrips dorsalis • Isoptera—Reticulitermes flavipes, Coptotermes formosanus • Orthoptera—Blattella germanica, Blatta orientalis, Gryllotalpa spp. • Diptera—Liriomyza spp., Musca domestica, Aedes spp., Culex spp., Anopheles spp. • Hymenoptera—Iridomyrmex humilis, Solenopsis spp., Monomorium pharaonis, Atta spp., Pogonomyrmex spp., Camponotus spp. • Siphonaptera—Ctenophalides spp., Pulex irritans • Acarina—Tetranychus spp., Panonychus spp., Eotetranychus carpini, Phyllocoptruta oleivora, Aculus pelekassi, Brevipalpus phoenicis, Boophilus spp., Dermacentor variabilis, Rhipicephalus sanguineus, Amblyomma americanum, Ixodes spp., Notoedres cati, Sarcoptes scabiei, Dermatophagoides spp. […]

[3] = test system: Beet Armyworm (Spodoptera exigua); experiment: Insecticidal test for beet armyworm, treated lepidopteran diet; set-up: key: A: 90–100; B: 80–89; C: 70–79; D: 60–69; E: 50–59; F: less than 50; G: Inactive; conditions: on diet surface, second-instar larvae, 5 days
From the text: as §1

[4] = test system: Cotton Aphid (Aphis gossypii); experiment: Insecticidal test for cotton aphid, spray on infested squash cotyledons; conditions: 50 ppm spray, 3 days
Procedure: Insecticidal Test for Cotton Aphid (Aphis gossypii)
To prepare spray solutions, 1 mg of each test compound was dissolved into 1 mL of a 90:10 acetone:ethanol solvent. This 1 mL of chemical solution was added to 19 mL of water containing 0.05% Tween 20 surfactant to produce a 50 ppm spray solution.
Squash cotyledons were infested with cotton aphid (all life stages) 16–20 hours prior to application of spray solution. The solution was sprayed on both sides of each infested squash cotyledon (0.5 mL×2 each side) with a sweeping action until runoff. The plants were allowed to air dry and held for 3 days in a controlled room at 26° C. and 40% RH after which time the test was graded. Grading was by actual count using a dissecting microscope and comparison of test counts to the untreated check. Results are given in Tables 1–4 as percent control based on population reduction versus the untreated.

[5] = test system: Sweetpotato Whitefly (Bemisia tabacia); experiment: Insecticidal test for sweetpotato whitefly, spray on cotton plants; set-up: key: A: 90–100; B: 80–89; C: 70–79; D: 60–69; E: 50–59; F: less than 50; G: Inactive; conditions: 200 ppm spray, 13 days, large nymphs
Procedure: Insecticidal Test for Sweetpotato Whitefly (Bemisia tabacia)
Four mg of each test compound was dissolved by adding 4 mL of a 90:10 acetone:ethanol solvent mixture to the vial containing the sample compound. This solution was added to 16 mL of water containing 0.05% Tween 20 surfactant to produce 20 mL of an 200 ppm spray solution.
Five-week-old cotton plants reared in a greenhouse were stripped of all foliage except for the two uppermost true leaves that were greater than 5 cm in diameter. These plants were then placed into a laboratory colony of whiteflies for two days for oviposition by the colony females. All whiteflies were then removed from the test plants with pressurized air. The spray solution was then applied to the test plants with a hand-held syringe fitted with hollow cone nozzle. One mL spray solution was applied to each leaf top and bottom for a total of 4 mL per plant. Four replications of each test compound utilized a total of 16 mL spray solution. Plants were air dried and then placed in a holding chamber (28° C. and 60% RH) for 13 days. Compound efficacy was evaluated by counting, under an illuminated magnifying glass, the number of large nymphs (3rd–4th instar) per leaf.
Percent control based on reduction of large nymphs of a test compound compared to solution-only (no test compound) sprayed plants is reported in Tables 1–4.

[6] = test system: Tobacco Budworm (Heliothis virescens); experiment: Insecticidal test for tobacco budworm, treated cotton cotyledon leaf disc; set-up: key: A: 90–100; B: 80–89; C: 70–79; D: 60–69; E: 50–59; F: less than 50; G: Inactive; conditions: cotton cotyledon leaf-dip, 2nd instar larvae, 5 days
From the text: as §1

Structure (SMILES)	SM: activity against two-spotted spider mite (% control rating) [1]	CL: activity at 400 ppm against cabbage looper (% control rating) [2]	BAW: activity at 400 ppm against beet armyworm (% control rating) [3]	CA: activity at 50 ppm against cotton aphid (% control rating) [4]	WF: activity at 200 ppm against whitefly (% control rating) [5]	TBW: activity at 400 ppm against tobacco budworm (% control rating) [6]
Cn1nc(-c2c(F)cccc2Cl)nc1-c1sc(-c2ccc(Br)cc2)c(Cl)c1Cl	G	A (90–100)	A (90–100)	C (70–79)	E (50–59)	G
Cn1nc(-c2c(F)cccc2Cl)nc1-c1sc(-c2ccc(Br)cc2)cc1Cl	A (90–100)	A (90–100)	A (90–100)	B (80–89)	G	A (90–100)
Cc1cc(-c2cccc(OC(F)(F)F)c2)sc1-c1nc(-c2c(F)cccc2Cl)nn1C	A (90–100)	A (90–100)	G	B (80–89)	F (less than 50)	G
Cc1cc(-c2ccc(F)cc2)sc1-c1nc(-c2c(F)cccc2Cl)nn1C	A (90–100)	A (90–100)	D (60–69)	B (80–89)	G	F (less than 50)
Cc1cc(-c2ccc(Cl)c(F)c2)sc1-c1nc(-c2c(F)cccc2Cl)nn1C	A (90–100)	A (90–100)	A (90–100)	A (90–100)	G	B (80–89)
Cc1cc(-c2ccc(Cl)cc2F)sc1-c1nc(-c2c(F)cccc2Cl)nn1C	A (90–100)	A (90–100)	A (90–100)	C (70–79)	G	F (less than 50)
Cc1cc(-c2cccc(C(F)(F)F)c2F)sc1-c1nc(-c2c(F)cccc2Cl)nn1C	A (90–100)	A (90–100)	A (90–100)	D (60–69)	G	D (60–69)
Cc1cc(-c2ccc3c(c2)COC3)sc1-c1nc(-c2c(F)cccc2Cl)nn1C	C (70–79)	A (90–100)	B (80–89)	D (60–69)	G	G
COCCOc1cccc(-c2cc(C)c(-c3nc(-c4c(F)cccc4Cl)nn3C)s2)c1	C (70–79)	G	F (less than 50)	B (80–89)	G	F (less than 50)
Cc1cc(-c2ccc(OC(C)C)cc2)sc1-c1nc(-c2c(F)cccc2Cl)nn1C	A (90–100)	B (80–89)	D (60–69)	D (60–69)		G
Cc1cc(-c2ccc(OC(F)(F)C(F)Cl)cc2)sc1-c1nc(-c2c(F)cccc2Cl)nn1C (centres unmarked)	A (90–100)	A (90–100)	A (90–100)	D (60–69)	F (less than 50)	A (90–100)
Cc1c(-c2nc(-c3c(F)cccc3Cl)nn2C)csc1-c1ccc(SCF)cc1		G	B (80–89)	B (80–89)	F (less than 50)	G
Cc1sc(-c2ccc(C(F)(F)F)cc2F)c(C)c1-c1nc(-c2c(F)cccc2Cl)nn1C		A (90–100)	A (90–100)	B (80–89)		G
